Measured values published in ChEMBL document CHEMBL4340507, “Identification of an indol-based multi-target kinase inhibitor through phenotype screening and target fishing using inverse virtual screening approach” (Eur J Med Chem, 2019).
The source made the active and inactive calls. The rule behind the calls is not given here.

Key:
[1] = test system: HeLa; test: Induction of apoptosis in human HeLa cells assessed as increase in hypodiploid nuclei at 0.3 to 0.6 uM measured after 24 hrs by propidium iodide staining-based FACS analysis; assay type: functional, cell-based
[2] = molecular target: Wee1-like protein kinase (Homo sapiens, UniProt P30291); test: Inhibition of recombinant human N-terminal GST-His6-fused WEE1 C-terminal domain (Q36 to Y432 residues) expressed in Sf9 cells using Poly(Ala,Glu,Lys,Tyr)6:2:5:1 as substrate measured after 60 mins in presence of [gamma-33P]-ATP by scintillation counting method
[3] = molecular target: Mitogen-activated protein kinase 14 (Homo sapiens, UniProt Q16539); test: Inhibition of recombinant human full-length untagged p38-alpha (M1 to S360 residues) expressed in Escherichia coli cells using recombinant ATF2 as substrate measured after 60 mins in presence of [gamma-33P]-ATP by scintillation counting method
[4] = test system: HeLa; test: Induction of apoptosis in human HeLa cells assessed as effect on PARP level at 0.1 to 0.6 uM after 24 hrs by FACS analysis; assay type: functional, cell-based
[5] = test system: IEC-6; test: Cell cycle arrest in rat IEC-6 cells assessed as accumulation at G0/G1-phase at 0.1 to 0.6 uM after 24 hrs by propidium iodide staining-based FACS analysis; assay type: ADME; conditions: iec-6, 24 h
[6] = molecular target: Hepatocyte growth factor receptor (Homo sapiens, UniProt P08581); test: Inhibition of recombinant human wild-type N-terminal GST-His6-fused MET C-terminal domain (K956 to S1390 residues) expressed in Sf9 insect cells using TRK-C derived peptide as substrate measured after 60 mins in presence of [gamma-33P]-ATP by scintillation counting method
[7] = molecular target: Mitogen-activated protein kinase kinase kinase 9 (Homo sapiens, UniProt P80192); test: Inhibition of recombinant human MAP3K9 measured after 60 mins in presence of [gamma-33P]-ATP by scintillation counting method
[8] = test system: PC-3; test: Antiproliferative activity against human PC3 cells assessed as decrease in cell viability measured after 72 hrs by MTT assay; assay type: functional, cell-based; conditions: PC-3, 72 h
[9] = molecular target: Fibroblast growth factor receptor 4 (Homo sapiens, UniProt P22455); test: Inhibition of recombinant human N-terminal GST-His6-fused FGFR4 (R391 to T802 residues) expressed in baculovirus infected Sf9 cells using Poly(Glu:Tyr)4:1 as substrate measured after 60 mins in presence of [gamma-33P]-ATP by scintillation counting method
[10] = Inhibition of ERK phosphorylation in rat IEC-6 cells at 0.1 to 0.6 uM after 24 hrs by FACS analysis; assay type: cell-based; conditions: iec-6, 24 h
[11] = molecular target: Dual specificity mitogen-activated protein kinase kinase 2 (Homo sapiens, UniProt P36507); test: Inhibition of recombinant human MEK2 measured after 60 mins in presence of [gamma-33P]-ATP by scintillation counting method
[12] = molecular target: Casein kinase II subunit alpha' (Homo sapiens, UniProt P19784); test: Inhibition of recombinant human full-length N-terminal GST-His6-fused CK2-alpha2 (M1 to R350 residues) expressed in Sf9 insect cells using casein as substrate measured after 60 mins in presence of [gamma-33P]-ATP by scintillation counting method
[13] = test system: IEC-6; test: Induction of ROS generation in rat IEC-6 cells at 0.1 to 0.6 uM measured after 24 hrs by H2DCF-DA staining-based FACS analysis; assay type: cell-based; conditions: iec-6, 24 h
[14] = molecular target: Mitogen-activated protein kinase 15 (Homo sapiens, UniProt Q8TD08); test: Inhibition of recombinant human N-terminal 4xFLAG-tagged/C-terminal His8-fused ERK7 N-terminal domain (M1 to R354 residues) expressed in Sf9 insect cells using RBER-CHKtide as substrate measured after 60 mins in presence of [gamma-33P]-ATP by scintillation counting method
[15] = molecular target: Mast/stem cell growth factor receptor Kit (Homo sapiens, UniProt P10721); test: Inhibition of recombinant human wild-type N-terminal GST-His6-fused KIT C-terminal domain (T544 to V976 residues) expressed in Sf9 insect cells using TRK-C derived peptide as substrate measured after 60 mins in presence of [gamma-33P]-ATP by scintillation counting method
[16] = molecular target: Platelet-derived growth factor receptor beta (Homo sapiens, UniProt P09619); test: Inhibition of recombinant human N-terminal GST-His6-fused PDGFR-beta C-terminal domain (R561 to L1106 residues) expressed in Sf9 insect cells using Poly(Ala,Glu,Lys,Tyr)6:2:5:1 as substrate measured after 60 mins in presence of [gamma-33P]-ATP by scintillation counting method
[17] = molecular target: Receptor tyrosine-protein kinase erbB-4 (Homo sapiens, UniProt Q15303); test: Inhibition of recombinant human N-terminal GST-His6-fused ERBB4 C-terminal domain (R676 to V1307 residues) expressed in Sf9 cells using Poly(Glu:Tyr)4:1 as substrate measured after 60 mins in presence of [gamma-33P]-ATP by scintillation counting method
[18] = test system: MCF7; test: Antiproliferative activity against human MCF7 cells assessed as decrease in cell viability measured after 72 hrs by MTT assay; assay type: functional, cell-based; conditions: MCF7, 72 h
[19] = test system: HeLa; test: Cell cycle arrest in human HeLa cells assessed as accumulation at G0/G1-phase at 0.1 to 0.6 uM after 24 hrs by propidium iodide staining-based FACS analysis; assay type: functional
[20] = molecular target: Dual specificity protein kinase CLK1 (Homo sapiens, UniProt P49759); test: Inhibition of recombinant human full-length N-terminal GST-His6-fused CLK1 (M1 to I484 residues) expressed in Sf9 cells using RS-peptide as substrate measured after 60 mins in presence of [gamma-33P]-ATP by scintillation counting method
[21] = test system: HeLa; test: Cell cycle arrest in human HeLa cells assessed as decrease in accumulation at G2-phase at 0.1 to 0.6 uM after 24 hrs by propidium iodide staining-based FACS analysis; assay type: functional
[22] = molecular target: Vascular endothelial growth factor receptor 3 (Homo sapiens, UniProt P35916); test: Inhibition of recombinant human N-terminal GST-His6 fused VEGFR3 C-terminal domain (N799 to R1298 residues) expressed in baculovirus infected Sf9 insect cells using Poly(Glu:Tyr)4:1 as substrate measured after 60 mins in presence of [gamma-33P]-ATP by scintillation counting method
[23] = test system: Jurkat; test: Antiproliferative activity against human Jurkat T cells assessed as decrease in cell viability measured after 24 to 72 hrs by MTT assay; assay type: functional, cell-based
[24] = molecular target: Focal adhesion kinase 1 (Homo sapiens, UniProt Q05397); test: Inhibition of recombinant human N-terminal GST-fused FAK (2 to 1052 residues) expressed in Sf9 insect cells using Poly(Glu/Tyr)4:1 as substrate measured after 60 mins in presence of [gamma-33P]-ATP by scintillation counting method
[25] = test system: IEC-6; test: Induction of apoptosis in rat IEC-6 cells assessed as effect on PARP level at 0.1 to 0.6 uM after 24 hrs by FACS analysis; assay type: cell-based; conditions: iec-6, 24 h
[26] = molecular target: 3-phosphoinositide-dependent protein kinase 1 (Homo sapiens, UniProt O15530); test: Inhibition of recombinant human N-terminal His6-fused PDK1 (M1 to M460 residues) expressed in Sf9 insect cells using tetra(LRRWSLG) peptide as substrate measured after 60 mins in presence of [gamma-33P]-ATP by scintillation counting method

CN(CCc1ccc(-c2ccccc2)cc1)Cc1cn(C)c2ccc(C(=O)Nc3ccc(F)cc3)cc12
Activity [1]: Active | IC50 [2]: 79 µM | IC50 [3]: 88 µM | Activity [4]: inactive | Activity [5]: Toxic | IC50 [6]: 61 µM | IC50 [7]: 100 µM | IC50 [8]: 16.9 µM | IC50 [9]: 11 µM | inhibition (INH) [10]: Not Active | IC50 [11]: 74 µM | IC50 [12]: 99 µM | Activity [13]: Toxic | IC50 [14]: 61 µM | IC50 [15]: 11 µM | IC50 [16]: 81 µM | IC50 [17]: 7.9 µM | IC50 [18]: 2.16 µM | Activity [19]: Active | IC50 [20]: 13 µM | Activity [21]: Active | IC50 [22]: > 100 µM | IC50 [23]: 2.7 µM | IC50 [24]: > 100 µM | Activity [25]: Non-Toxic | IC50 [26]: 11 µM
